Test results published in US20250320496A1, “MODULATION OF ABCB11 GENE TRANSCRIPTION USING ANTISENSE OLIGONUCLEOTIDES TARGETING REGULATORY RNAS” (CAMP4 Therapeutics Corporation, priority 2022, published 2025).
Strand notation (5' to 3'): a small letter for the sugar, then the base; units joined by * are phosphorothioate-linked, units joined directly phosphodiester-linked; [ ] holds rarer units or linkages, { } end groups; capitals alone tell only the bases. e = 2'-O-(2-methoxyethyl) (MOE); l = locked nucleic acid (LNA); [5mC] = 5-methylcytosine; d = 2'-deoxy (DNA)

Tested on: human ABCB11 mRNA
Experiment: ASO treatment of primary human hepatocytes (PHH), ABCB11 mRNA by RT-qPCR normalized to B2M
Type: cell-based
Settings: for ABCB11 mRNA FC (5 μM ASO vs. UNT) / ABCB11 FC mRNA (5 μM ASO vs. untreated): primary human hepatocytes; for ABCB11 mRNA FC (5 μM ASO vs. UNT): normalized to untreated PHHs (UNT); for ABCB11 FC mRNA (5 μM ASO vs. untreated): 5 μM ASO with PO-modifications, normalized to untreated hepatocytes
In short: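 ABCB11 mRNA was quantified by Taqman RT-qPCR relative to B2M and expressed as fold over untreated cells. Cells were cryopreserved primary human hepatocytes given ASO in Matrigel-supplemented medium 4 h after plating, at 1.25, 2.5, 5 or 10 μM (5 μM for screening), and harvested after 72 hrs.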

Row | Substance | ABCB11 mRNA FC (5 μM ASO vs. UNT) | also measured
1 | CO-7090 (eA*e[5mC]*e[5mC]*e[5mC]*l[5mC]*d[5mC]*d[5mC]*dT*l[5mC]*dA*d[5mC]*d[5mC]*lT*dT*dG*eG*lT*eT*e[5mC]*e[5mC]; antisense) | 1.203 fold change | –
2 | CO-4032 (antisense eA*eG*eT*e[5mC]*e[5mC]*eA*eT*eT*eA*eT*eT*eT*e[5mC]*e[5mC]*eT*e[5mC]*eT*eG*eG*e[5mC]) | 1.311 fold change | –
3 | CO-11202: ASO containing PO-modifications identified in the Table 13 screen in PHHs (antisense eT*eG*eTeT*eT*eT*eG*e[5mC]eT*eT*eG*eG*eTe[5mC]*eA*eA*eG*eAeG*eG) | – | ABCB11 mRNA fold change (PHHs, 5 μM dose (FIG. 14)): ~2 fold; ABCB11 mRNA fold change (PHHs, 10 μM dose (FIG. 14)): ~3.5 fold; ABCB11 mRNA expression, dose response (PHHs, comparison study with OCA, elafibranor, fenofibrate (FIG. 14)): dose-dependent increase; ABCB11 FC mRNA (5 μM ASO vs. untreated): 1.50 fold change
4 | CO-7193: derivative ASO with additional chemical modifications based on parent ASO CO-4535 (eT*eG*eG*e[5mC]*eG*lT*eT*eA*eT*eT*lA*eA*eT*eT*e[5mC]*lT*eA*e[5mC]*eA*eG) | 1.555 fold change | –
5 | CO-7184: derivative ASO with additional chemical modifications based on parent ASO CO-4529 (antisense eG*eT*eG*eG*lA*eG*e[5mC]*eA*eA*lA*e[5mC]*eT*eA*eG*lG*e[5mC]*eA*e[5mC]*eT*eG) | 1.582 fold change | –
6 | CO-7045 (antisense eT*eG*eT*eT*eT*dT*dG*d[5mC]*dT*dT*dG*dG*dT*d[5mC]*dA*eA*eG*eA*eG*eG) | 1.112 fold change | –
7 | CO-4491 (antisense eG*eA*eG*eG*eT*eT*eG*eA*e[5mC]*eA*eA*eA*eT*eA*eG*eG*eT*eG*eT*eG) | 1.101 fold change | –
8 | CO-12747 (antisense eG*eT*eGeAeGeGe[5mC]*eA*eT*e[5mC]*eA*eG*eG*eTeAeAeGeT*eT*e[5mC]) | – | ABCB11 FC mRNA (5 μM ASO vs. untreated): 0.97 fold change
9 | CO-7106 (eA*e[5mC]*eA*eT*eT*eT*dA*dG*dA*dG*dA*d[5mC]*dA*dA*dA*dG*eA*eA*eT*e[5mC]*eG*e[5mC]; antisense) | 1.246 fold change | –
10 | CO-4025 (antisense eA*e[5mC]*eG*e[5mC]*eT*eA*e[5mC]*eA*eA*eT*eA*e[5mC]*eT*eT*eG*eG*eA*eT*eA*eG) | 0.832 fold change | –
11 | CO-6981 (antisense eA*e[5mC]*eA*eG*eA*eA*eG*eT*eG*eA*eG*eG*e[5mC]*eA*eT*e[5mC]*eA*eG*eG*eT) | 1.164 fold change | –
12 | CO-7009 (antisense eT*eG*eT*eG*eG*eA*eT*dG*dT*dA*dGdA*dT*dG*dA*dA*dT*eG*eG*e[5mC]*eA*eA*eG*eG) | 1.289 fold change | –
13 | CO-7112 (eT*eA*e[5mC]*eA*eT*dT*dT*eA*dG*dA*eG*dA*d[5mC]*eA*dA*dA*eG*dA*dA*eT*e[5mC]*eG*e[5mC]*eT; antisense) | 0.98 fold change | –
14 | CO-4499 (antisense eA*eA*eG*eG*eA*eA*eG*eG*eT*e[5mC]*eT*eA*eG*e[5mC]*eG*eG*eA*eG*eG*eT) | 1.202 fold change | –
15 | CO-7181: derivative ASO with additional chemical modifications based on parent ASO CO-4529 (antisense eG*eT*eG*eG*lA*eG*e[5mC]*eA*lA*eA*e[5mC]*eT*lA*eG*eG*e[5mC]*lA*e[5mC]*eT*eG) | 1.603 fold change | –
16 | CO-11216 (antisense eG*eT*lG*eG*lAeG*l[5mC]*eA*lAeA*l[5mC]*eT*lAeG*lG*e[5mC]*lAe[5mC]*eT*eG) | – | ABCB11 FC mRNA (5 μM ASO vs. untreated): 2.58 fold change
17 | CO-11228 (antisense eG*eT*lG*eG*eAlG*e[5mC]*eA*lAeA*e[5mC]*lT*eAeG*lG*e[5mC]*eAl[5mC]*eT*eG) | – | ABCB11 FC mRNA (5 μM ASO vs. untreated): 1.99 fold change
18 | CO-4047 (antisense eG*e[5mC]*eA*eA*eT*e[5mC]*eT*eT*eT*eT*eA*eT*eA*eT*eT*eG*eA*eG*eG*eG) | 0.676 fold change | –
19 | CO-6996 (antisense eG*eT*eG*lA*eG*dG*d[5mC]*lA*dT*d[5mC]*dA*lG*dG*dT*dA*lA*eG*eT*eT*e[5mC]) | 1.314 fold change | –
20 | CO-4044 (antisense eG*eT*eT*eG*eG*eG*eA*eT*eA*eG*e[5mC]*e[5mC]*eT*eG*eA*eA*eT*eT*e[5mC]*e[5mC]) | 0.974 fold change | –
21 | CO-4036 (antisense eG*e[5mC]*eA*eA*eA*eT*eA*eG*eA*eT*eA*eA*eT*eG*eT*eT*e[5mC]*eT*eT*eG) | 1.235 fold change | –
22 | CO-11231 (antisense eG*eT*lGeG*eA*lGe[5mC]*eA*lAeA*e[5mC]*lTeA*eG*lGe[5mC]*eA*l[5mC]eT*eG) | – | ABCB11 FC mRNA (5 μM ASO vs. untreated): 1.85 fold change
23 | CO-7151: derivative ASO with additional chemical modifications based on parent ASO CO-4517 (antisense e[5mC]*e[5mC]*eT*eT*eA*lG*dG*dA*lG*dG*dA*dT*dT*lA*dT*dT*lT*eA*eA*e[5mC]*e[5mC]*eT) | 1.498 fold change | –

Row | Substance | ABCB11 mRNA FC (5 μM ASO vs. UNT) | also measured
24 | CO-6988 (antisense eT*eG*eG*lA*eT*lG*eT*lA*eG*lA*eT*lG*eA*lA*eT*lG*eG*l[5mC]*eA*eA) | 1.093 fold change | –
25 | CO-11224 (antisense eG*eT*lGeGeAlGe[5mC]*eA*lA*eA*e[5mC]*lT*eA*eGlGe[5mC]eAl[5mC]*eT*eG) | – | ABCB11 FC mRNA (5 μM ASO vs. untreated): 1.88 fold change
26 | CO-7168 (antisense eT*eG*eG*e[5mC]*eG*dT*dT*dA*dT*dT*dA*dA*dT*dT*d[5mC]*eT*eA*e[5mC]*eA*eG) | 1.301 fold change | –
27 | CO-3974: ASO targeting the paRNA regRNA RR63 (antisense eT*e[5mC]*eT*eG*eG*eA*eA*eA*eA*eT*eA*eA*eT*eG*e[5mC]*e[5mC]*eT*eT*eT*e[5mC]) | 1.2 fold change | upregulation of ABCB11 mRNA (PHHs, Day 3, normalized to untreated PHHs): approximately 1.5 fold
28 | CO-7046 (antisense eT*eG*eT*eG*eT*eT*eT*eT*eG*e[5mC]*eT*eT*eG*eG*eT*e[5mC]*eA*eA*eG*eA) | 1.243 fold change | –
29 | CO-7169 (antisense eT*eT*eA*eT*eT*eT*eG*eG*e[5mC]*eG*eT*eT*eA*eT*eT*eA*eA*eT*eT*e[5mC]) | 1.289 fold change | –
30 | CO-7100 (eA*eT*e[5mC]*eT*eG*dG*dA*dA*eA*dA*dT*dA*dA*eT*dG*d[5mC]*d[5mC]*eT*eT*eT*e[5mC]*eT; antisense) | 1.406 fold change | –
31 | CO-4015 (antisense eG*eT*eT*eT*eG*e[5mC]*eT*e[5mC]*eT*eG*eA*eT*eA*eA*eT*e[5mC]*eA*e[5mC]*eA*eG) | 1.043 fold change | –
32 | CO-7052 (antisense eT*e[5mC]*eA*e[5mC]*e[5mC]*eT*eT*eG*eG*eT*eT*e[5mC]*e[5mC]*e[5mC]*e[5mC]*e[5mC]*eT*eG*e[5mC]*eT) | 1.046 fold change | –
33 | CO-11208 (antisense eT*eG*eTeT*eTeT*eGe[5mC]*eTeT*eGeG*eTe[5mC]*eAeA*eGeA*eG*eG) | – | ABCB11 FC mRNA (5 μM ASO vs. untreated): 1.04 fold change
34 | CO-6669 (antisense eG*eT*eT*eT*eA*eG*eT*eT*eG*eA*e[5mC]*eT*eG*e[5mC]*eA*eG*eA*eG*eG*eG) | 1.291 fold change | –
35 | CO-7088 (eA*e[5mC]*e[5mC]*e[5mC]*e[5mC]*l[5mC]*d[5mC]*dT*l[5mC]*dA*d[5mC]*l[5mC]*dT*dT*lG*eG*eT*eT*e[5mC]*e[5mC]; antisense) | 1.177 fold change | –
36 | CO-4496 (antisense eG*eT*eA*e[5mC]*eT*eA*eG*eA*e[5mC]*eT*e[5mC]*eT*eG*e[5mC]*e[5mC]*eT*eG*eT*eG*eT) | 0.984 fold change | –
37 | CO-7006 (antisense eG*eT*eG*eG*eA*eT*eG*eT*eA*eG*eA*eT*eG*eA*eA*eT*eG*eG*e[5mC]*eA*eA*eG) | 1.279 fold change | –
38 | CO-7157 (antisense eG*eT*eG*eG*eA*dG*d[5mC]*dA*dA*dA*d[5mC]*dT*dA*dG*dG*e[5mC]*eA*e[5mC]*eT*eG) | 1.195 fold change | –
39 | CO-7011 (antisense eT*eG*eT*eG*eG*dA*dT*eG*dT*dA*eG*dA*dT*eG*dA*dA*eT*dG*dG*e[5mC]*eA*eA*eG*eG) | 1.284 fold change | –
40 | CO-4528 (antisense e[5mC]*eT*eG*eG*eG*eA*eT*eA*eG*eG*eG*eT*eG*eG*eA*eT*e[5mC]*eT*eA*e[5mC]) | 0.883 fold change | –
41 | CO-4050 (antisense e[5mC]*eA*eA*eA*eT*eG*eT*eT*e[5mC]*eT*eT*eT*eT*eA*eG*eG*eG*eT*eA*eT) | 0.968 fold change | –
42 | CO-7155 (antisense eA*e[5mC]*e[5mC]*eT*eT*dA*dG*lG*dA*dG*lG*dA*dT*lT*dA*dT*lT*dT*dA*eA*e[5mC]*e[5mC]*eT*e[5mC]) | 1.253 fold change | –
43 | CO-3994 (antisense e[5mC]*e[5mC]*e[5mC]*eA*e[5mC]*eT*e[5mC]*eT*eA*eG*eA*eT*eT*eG*e[5mC]*eA*eA*eG*e[5mC]*e[5mC]) | 1.988 fold change | –
44 | CO-4037 (antisense eG*eG*eG*eA*e[5mC]*eA*eT*eT*eG*eA*eT*e[5mC]*e[5mC]*eT*eT*eA*eG*eG*e[5mC]*eA) | 0.697 fold change | –
45 | CO-7095 (eA*e[5mC]*e[5mC]*l[5mC]*e[5mC]*e[5mC]*e[5mC]*lT*e[5mC]*eA*e[5mC]*l[5mC]*eT*eT*eG*lG*eT*eT*e[5mC]*e[5mC]; antisense) | 0.925 fold change | –
46 | CO-11229 (antisense eG*eTlG*eG*eA*lGe[5mC]*eA*lA*eAe[5mC]*lT*eA*eGlG*e[5mC]*eA*l[5mC]eT*eG) | – | ABCB11 FC mRNA (5 μM ASO vs. untreated): 2.83 fold change
